The subject of data set [1] is shaking from Parkinson disease. As to the kind of experiment: hand writing skill test for relief of the shaking from Parkinson disease in one patient. The class given is in vivo, human. Here is the method: A patient diagnosed with Parkinson's disease and in need of treatment by the methods disclosed herein was administered compositions comprising the compounds disclosed herein. The patient had been diagnosis with Parkinson's disease by two medical doctors, the family doctor and a neurologist. They had taken L-Dopa for over a year. The patient informed their doctors that they were no longer taking L-Dopa. They took nothing for their Parkinson's Disease for almost a year before beginning to take asparagusic acid.
The test for relief of the shaking from Parkinson disease was the patient's hand writing skill. Prior to treatment with asparagusic acid the patient could not write their name. […] Normally the ability to write was diminished within 12 hours, but their varied.
The asparagus top third was cut from the stalk and weighed. 50 to 100 grams was used per treatment. The tops were steamed for a short period of time. This was typically done by placing the asparagus tops in a pie plate and covered. No water was added. After a short heating period, for example heating in a microwave for 44 seconds on high, the asparagus is “self” steamed from water in the plant and may substantially help in the formation of asparagusic acid from asparaptine. […] Excess heating will decompose asparagusic acid and will likely form a dihydro byproduct by splitting the disulfide linkage.
A preparation as described above was taken at least two hours after eating. The asparagus was consumed immediately after heating with salt and taken with simple non-caffeine liquids such as water and white wine. No further food was consumed for at least an hour. […] One exception was found. […] It is noted that raw eggs contain many sulfur compounds.

For data set [2] the following is noted: boiling for 30 minutes; rearranges to 1,2,3-trithiane-5-carboxylic acid and 1,2-dithiacylopentene; cited from earlier work.

We go through two compounds from US20170209413A1, “USE OF ASPARAGUSIC ACID AND DERIVATIVES THEREOF TO TREAT SYMPTOMS AND DISORDERS OF NEUROLOGICAL DISEASE” (priority 2016, published 2017).

Consider `O=C(O)CCCC[C@@H]1CCSS1` (racemic) [lipoic acid, reference compound], for which the “effect on shaking, lipoic acid” value in data set [1] (250 mg tablet, same manner in regards to food consumption as Example 1) is “no effect”.
On to `O=C(O)C1CSSC1` [asparagusic acid, 1,2-dithiolane-4-carboxylic acid], for which the stability during cooking result in data set [2] was “not vary stable”. Besides, the “time until ability to write was diminished” value in data set [1] (one Parkinson's patient, after treatment, varied) is no more than 12 h. The “relief of the shaking from Parkinson disease (patient's hand writing skill)” value in data set [1] (one Parkinson's patient, 50 to 100 grams asparagus tops, steamed a short time (microwave 44 seconds), taken at least two hours after eating, no food for at least an hour) was “could easily write their name in a flowing easy manner”.
